Data on 1 molecule can be found in patent publication US20230364032A1, “USE OF 2-HOBA TO TREAT ATHEROSCLEROSIS” (Vanderbilt University, priority 2020, published 2023).

One data set concerns cyclooxygenase (COX). The data set can be described thus: Urinary prostaglandin metabolites (LC/MS). Format: in vivo, mouse. How it is done: The urine samples were collected in metabolic cages with 2 mice per cage after 12 weeks of treatment with 2-HOBA or water. The contents of PGE-M (20A), tetranor PGD-M (20B), 2,3-dinor-6-keto-PGF1 (20C) and 11-dehydro TxB2 (20D) were analyzed by LC/MS/MS. (20A-20D) Mean±SEM shown for each, N.S., Mann-Whitney Test.
Concentrations of PGE-M, tetranor PGD-M, 11-dehydro-TxB^2 (TxB-M) and PGI-M in urine were measured in the Eicosanoid Core Laboratory at Vanderbilt University Medical Center. Urine (1 mL) was acidified to pH 3 with HCl. [^2H4]-2,3-dinor-6-keto-PGF1a (internal standard for PGI-M quantification) and [^2H4]-11-dehydro-TxB2 were added, and the sample was treated with methyloxime HCl to convert analytes to the O-methyloxime derivative. The derivatized analytes were extracted using a C-18 Sep-Pak (Waters Corp. Milford, MA USA) and eluted with ethyl acetate as previously described^68. A [^2H6]—O-methyloxime PGE-M deuterated internal standard was then added for PGE-M and PGD-M quantification. The sample was dried under a stream of dry nitrogen at 37° C. and then reconstituted in 75 μL mobile phase A for LC/MS analysis.
LC was performed on a 2.0×50 mm, 1.7 μm particle Acquity BEH C18 column (Waters Corporation, Milford, MA, USA) using a Waters Acquity UPLC. […]
Urinary creatinine levels are measured using a test kit from Enzo Life Sciences. […]

A further data set concerns MDA-protein adducts. The data set can be described thus: Proximal aortic lesion MDA adducts by immunofluorescence. Format: in vivo, mouse. The conditions noted are these: Ldlr−/− mice. From the text:
The extent of atherosclerosis was examined both Oil-Red-O-stained cross-sections of the proximal aorta and by en face analysis^30. Briefly, cryosections of 10-micron thickness were cut from the region of the proximal aorta starting from the end of the aortic sinus and for 300 μm distally, according to the method of Paigen et al.^62. The Oil red-O staining of 15 serial sections from the root to ascending aortic region were used to quantify the Oil red-O-positive staining area per mouse. The mean from the 15 serial sections was applied for the aortic root atherosclerotic lesion size per mouse using the KS300 imaging system (Kontron Elektronik GmbH) as described^63, 64, 65. All other stains were done using sections that were 40 to 60 μm distal of the aortic sinus. For each mouse, 4 sections were stained and quantitation was done on the entire cross section of all 4 sections. For immunofluorescence staining, 5 μm cross-sections of the proximal aorta were fixed in cold acetone (Sigma), blocked in Background Buster (Innovex), incubated with indicated primary antibodies (MDA and CD68) at 4° C. for overnight. After incubation with fluorescent labeled secondary antibodies at 37 C for 1 hour, the nucleus was counterstained with Hoechst. Images were captured with a fluorescence microscope (Olympus IX81) and SlideBook 6 (Intelligent-Image) software and quantitated using ImageJ software (NIH)^66.

Data set [1] in a line: Body weight, water intake, diet consumption, mortality. Type of data set: in vivo. The conditions noted are these: Ldlr−/− mice, western diet 16 weeks, 1 g/L; compared to vehicle or 4-HOBA. How it is done: The body weight (FIG. 8A), water intake (FIG. 8B), and diet consumption (FIG. 8C) were measured in the Ldlr^−/− mice consuming a Western diet for 16 weeks and treated with 1 g/L 2-HOBA, 4-HOBA, or vehicle. (FIG. 8D) The plasma was pooled from hypercholesterolemic Ldlr^−/− mice (4 mice/group) that were fasted for 6 hours. Fast performance liquid chromatography (FPLC) was performed using a Superose 6 column. Total cholesterol was measured by an enzymatic assay and the average is shown for two pooled plasma samples per group of mice.
Ldlr^−/− and WT on C57BL/6 background mice were obtained from the Jackson Laboratory. Animal protocols were performed according to the regulations of Vanderbilt University's Institutional Animal Care and Usage Committee. Mice were maintained on chow or a Western-type diet containing 21% milk fat and 0.15% cholesterol (Teklad). Eight week old, female Ldlr^−/− mice on a chow diet were pretreated with vehicle alone (Water) or containing either 1 g/L of 4-HOBA or 1 g/L of 2-HOBA. 4-HOBA (as hydrochloride salt) was synthesized as previously described^21. 2-HOBA (as the acetate salt, CAS 1206675-01-5) was manufactured by TSI Co., Ltd. (Missoula, MT) and obtained from Metabolic Technologies, Inc., Ames, IA^24. A commercial production lot was used (Lot 16120312), and the purity of the commercial lot was verified to be >99% via HPLC and NMR spectroscopy^24. […]

Structures are written as SMILES. Entries after “also recorded” stand apart in the source; their conditions may differ.

As to `NCc1ccccc1O` [2-HOBA, 2-hydroxybenzylamine], the “levels of major urinary prostaglandin metabolites (2,3-dinor-6-keto-PGF1, 11-dehydro TxB2, PGE-M, PGD-M)” value in the data set on cyclooxygenase (COX) (Ldlr−/− mice, compared to the vehicle control) was “no significant differences; also recorded: did not impact”. For the same molecule, in the data set on cyclooxygenase (COX) (mice), the “inhibition of COX in vivo” value is recorded as “not significantly inhibiting COX”. Also, the “reduction of proximal aortic MDA adduct levels (immunofluorescence)” value with MDA-protein adducts (compared to 4-HOBA) was determined as 66.8%; with MDA-protein adducts (compared to vehicle alone), 68.5%. In addition, the “body weight, water consumption, diet uptake” value in data set [1] is listed as “did not affect; also recorded: does not impact”.
